Assays:
[1] = Half-life of compound in acetate buffer (pH 4.5); assay type: ADME
[2] = Half-life of compound in the presence of lysosomal enzymes in the acetate buffer; assay type: ADME

Row | Compound | half-life [1] [h] | half-life [2] [h]
1 | CC1(C)S[C@@H]2[C@H](NC(=O)COc3ccccc3)C(=O)N2[C@H]1C(=O)N[C@@H](Cc1ccc(O)cc1)C(=O)O | 7 | 7
2 | CC(=O)OCC1=C(C(=O)O)N2C(=O)[C@@H](NC(=O)Cc3cccs3)[C@H]2SC1 [CEPHALOTHIN] | 29 | 1.1
3 | CC(=O)OCC1=C(C(=O)NC(CC(C)C)C(=O)O)N2C(=O)[C@@H](NC(=O)Cc3cccs3)[C@H]2SC1 (stereo partly drawn) | 41 | 0.8
4 | CC1(C)S[C@@H]2[C@H](NC(=O)COc3ccccc3)C(=O)N2[C@H]1C(=O)O [PENICILLIN V] | 17 | 14
